According to the NIST ThermoML archive (doi:10.1007/s10765-005-8591-6):
± gives the expanded uncertainty stated by the source.

Assay: xn = mol fraction of the nth substance listed
Settings: Fluid (supercritical or subcritical phases), Constant-volume piezometry

FC(F)C(F)(F)F [pentafluoroethane] + FCF
Settings	mass density [kg/m3]
274.14 K, 15969 kPa, x2 = 0.8997	1150.66 ± 0.74
274.16 K, 16499 kPa, x2 = 0.6995	1232.92 ± 0.79
275.13 K, 16066 kPa, x2 = 0.4995	1292.46 ± 0.83
275.15 K, 16572 kPa, x2 = 0	1402.04 ± 0.65
282.15 K, 15978 kPa, x2 = 0.098	1360.53 ± 0.87
313.13 K, 2217.5 kPa, x2 = 0.3003	1050.39 ± 0.66
313.15 K, 2820.6 kPa, x2 = 0.1	1097.54 ± 0.69
318.14 K, 2959 kPa, x2 = 0.8992	900.95 ± 0.57
318.15 K, 2921.8 kPa, x2 = 0.6998	949.66 ± 0.6
318.15 K, 4528.5 kPa, x2 = 0.1	1097.17 ± 0.69
318.18 K, 3901.3 kPa, x2 = 0.3003	1050.03 ± 0.66
318.21 K, 3341.8 kPa, x2 = 0.4993	1000.3 ± 0.63
323.13 K, 5212.3 kPa, x2 = 0.8992	900.63 ± 0.57
323.14 K, 4867 kPa, x2 = 0.6998	949.34 ± 0.6
323.15 K, 5129.3 kPa, x2 = 0.4993	999.96 ± 0.63
323.16 K, 5645.9 kPa, x2 = 0.3003	1049.68 ± 0.67
323.16 K, 6252.9 kPa, x2 = 0.1	1096.79 ± 0.7
328.14 K, 6839.9 kPa, x2 = 0.6998	949.01 ± 0.61
328.15 K, 7408.9 kPa, x2 = 0.3003	1049.33 ± 0.67
328.15 K, 7986 kPa, x2 = 0.1	1096.43 ± 0.7
328.16 K, 6969.7 kPa, x2 = 0.4993	999.62 ± 0.64
328.16 K, 7509.2 kPa, x2 = 0.8992	900.31 ± 0.58
333.13 K, 8834 kPa, x2 = 0.6998	948.69 ± 0.61
333.13 K, 9793.4 kPa, x2 = 0.8992	900.01 ± 0.58
333.14 K, 9188.4 kPa, x2 = 0.3003	1048.98 ± 0.68
333.15 K, 8814.5 kPa, x2 = 0.4993	999.29 ± 0.64
333.17 K, 9741.9 kPa, x2 = 0.1	1096.06 ± 0.71
338.12 K, 12100 kPa, x2 = 0.8992	899.7 ± 0.59
338.13 K, 10843 kPa, x2 = 0.6998	948.37 ± 0.61
338.13 K, 10979 kPa, x2 = 0.3003	1048.63 ± 0.68
338.14 K, 11489 kPa, x2 = 0.1	1095.7 ± 0.71
338.19 K, 10690 kPa, x2 = 0.4993	998.95 ± 0.65
343.12 K, 12860 kPa, x2 = 0.6998	948.05 ± 0.62
343.12 K, 14419 kPa, x2 = 0.8992	899.4 ± 0.59
343.13 K, 12772 kPa, x2 = 0.3003	1048.29 ± 0.69
343.13 K, 13247 kPa, x2 = 0.1	1095.35 ± 0.72
343.18 K, 12550 kPa, x2 = 0.4993	998.62 ± 0.65
348.12 K, 14887 kPa, x2 = 0.6998	947.74 ± 0.63
348.13 K, 16746 kPa, x2 = 0.8992	899.1 ± 0.6
348.16 K, 14423 kPa, x2 = 0.4993	998.3 ± 0.66
348.16 K, 15022 kPa, x2 = 0.1	1094.99 ± 0.72
348.17 K, 14592 kPa, x2 = 0.3003	1047.95 ± 0.69
353.11 K, 16917 kPa, x2 = 0.6998	947.43 ± 0.63
353.13 K, 16290 kPa, x2 = 0.4993	997.98 ± 0.66
353.14 K, 16386 kPa, x2 = 0.3003	1047.61 ± 0.7
353.14 K, 16782 kPa, x2 = 0.1	1094.64 ± 0.73
354.13 K, 16744 kPa, x2 = 0.3003	1047.54 ± 0.7
354.15 K, 16672 kPa, x2 = 0.4993	997.91 ± 0.67
